Test results as given in PMC12469971 (Gels, 2025).
In brackets after ≈: the same amount, converted by molar mass. Several values for one entry are separate records, joined by “and”; a condition that tells them apart may be missing. Identical values can stand only once. Like-named read-outs stand apart in the source and are kept apart here.

What was measured:
[1] = Antioxidant activity, DPPH assay; assay type: biochemical; settings: not UV-irradiated; curcumin concentration; 40 min
Protocol: The samples were vortexed for 20 to 30 s, and their absorbance was measured at 517 nm after 40 min using a UV spectrophotometer (BOECO S-22) (BOECO, Hamburg, Germany). Ethanol is used for calibration, and ascorbic acid serves as a standard for antioxidant activity.
The percentage of DPPH inhibition for each sample type was determined, and the IC50 values were calculated based on the concentration (μg/mL) vs. inhibition plots. Ascorbic acid was used as a standard. All measurements were performed in triplicate at room temperature.

C6 tumor cell line = experiment: Cell apoptosis by Annexin V-FITC/PI flow cytometry; assay type: cell-based, Rattus norvegicus; settings: C6, 7.5 µg/mL, 24 h
Excerpt: (§1) The possible mechanism of action for the analyzed nanoparticles was established by determining the process of cellular apoptosis using flow cytometry, a method that enabled the assessment of the percentage of live, dead, pre-apoptotic, and apoptotic cells (Table S2 and Figure 8).
(§2) Apoptosis, also known as programmed cell death, is a natural process for eliminating cells. It involves the formation of membrane vesicles, chromatin condensation, and DNA fragmentation. Annexin V, which is a calcium-dependent protein, binds with high affinity to phosphatidylserine (PS), which moves from the inner to the outer membrane during apoptosis. When Annexin V is fluorescently labeled, this PS exposure can be detected using flow cytometry. The presence of PS signals macrophages to clear the cell through phagocytosis. […] In late apoptotic and necrotic cells, both the plasma and nuclear membrane integrity is compromised, enabling propidium iodide to penetrate the membrane, bind to nucleic acids, and produce red fluorescence. Cells were cultured in 24-well plates at a density of 50,000 cells per well to create a monolayer. After 24 h of incubation, test compounds (free drugs or nanoparticle formulations) were applied at a concentration of 7.5 µg/mL and incubated for an additional 24 h. Flow cytometry was used to process and analyze the cells according to the manufacturer’s instructions for the assay kit. For interpretation, cells that were negative for both propidium iodide (PI) and Annexin V were classified as viable; cells that were Annexin V-positive and PI-negative were considered apoptotic; and cells that were positive for both markers were identified as necrotic.

V79-4 normal cell line = experiment: Cell apoptosis by Annexin V-FITC/PI flow cytometry; assay type: cell-based, Cricetulus griseus; settings: V79-4, 7.5 µg/mL, 24 h
Excerpt: as §1, §2

[2] = PAMPA-BBB permeability assay (kit PMBBB-096); assay type: in vitro ADME; settings: for Papp at 18 h, 500 μM: PAMPA, 37 °C
Protocol: The in vitro parallel artificial permeability assay (PAMPA, Kit PMBBB-096 from BioAssay Systems (Hayward, CA, USA)) was employed to evaluate whether nanoparticles can cross the BBB. […] As a negative standard, we used the low-permeability (LP) and high-permeability (HP) standards from the PAMPA-BBB kit from Bioassay.
Specifically, the PMBBB-096 (BioAssay Systems Hayward, CA, USA) kit supports in vitro assessment of BBB permeability. […] Three hundred microliters (300 μL) of 0.01 M PBS with 5% DMSO was added to the acceptor plate (96-well PTFE acceptor plates) (BioAssay Systems Hayward, CA, USA). The donor plate (96-well polycarbonate filter-based donor plates, pore size 0.45 μm) was coated with 5 μL of lyophilized brain lipid extract solution, made by dissolving the brain extract in 400 μL of dodecane. […] In parallel, 200 μM equilibrium standards were prepared in separate Eppendorf tubes for each test and control sample. In Eppendorf tubes, 80 μL of test solutions or the control standard at a concentration of 500 μM were mixed with 120 μL of PBS solution containing 5% DMSO. The blank was prepared using the PBS solution with 5% DMSO. The next day, equilibrium standards and the blank solution were utilized, and the acceptor compartment’s solution was analyzed. […] Based on the absorbance value determined for each respective test sample and the permeability control standard, the permeability rate (Pe) was calculated using the following Equation (4):(4) Pe=C×−ln1−ODA/ODE,cm/s where ODA represents the absorbance of the acceptor plate solution minus the absorbance of the blank, and ODE indicates the absorbance of the equilibrium standard minus the absorbance of the blank.

Cytotoxicity, MTT assay = settings: Chinese hamster, V79-4 lung fibroblasts (ATCC CCL-93), 48 h; for viability at 48 h, 1.875 μg/mL: Cell viability (%) V79-4, 1.875 μg/mL (nanoparticles or free drug); for viability at 48 h, 3.75 μg/mL: Cell viability (%) V79-4, 3.75 μg/mL; for viability at 48 h, 7.5 μg/mL: Cell viability (%) V79-4, 7.5 μg/mL; for viability at 48 h, 15 μg/mL: Cell viability (%) V79-4, 15 μg/mL
Protocol: (§3) This IC50 value was derived from a graph plotting the percentage of dead cells against the drug concentration in the samples. […] A lower IC50 value indicates the higher cytotoxicity of the samples.
(§4) In both cases, the growth media were supplemented with 10% fetal bovine serum (SFB, Euroclone S.p.A., Milan, Italy) and 1% antibiotic solution, containing penicillin at […] and streptomycin at 100 IU/mL (Capricorn Scientific GmbH, Ebsdorfergrund, Germany), maintained at a temperature of 37 °C in a humidified environment with 5% CO2 [130]. Products tested: Albumin nanoparticles obtained through self-assembly and crosslinking with OG were evaluated.
(§5) This method relies on the conversion of MTT, a water-soluble yellow compound, into dark blue, water-insoluble formazan by the mitochondrial dehydrogenases of living cells. […] After treatment, the medium was removed, the cells were washed with phosphate-buffered saline (PBS), and then incubated with 100 μL of fresh medium and 10 μL of MTT (5 mg/mL) for 3 h at 37 °C. The resulting formazan crystals were solubilized with 50 μL of DMSO, and absorbance was measured at 570 nm using the EZ Read 400 reader (Biochrom, Cambridge, UK). The intensity of the resulting color directly correlates with the number of viable cells, and viability was calculated using Equation (6):Cell viability (%) = Esample/Econtrol × 100, where E = extinction(6)

C6 tumor cells = experiment: Cytotoxicity, MTT assay; settings: for viability at 1.875 µg/mL / viability at 3.75 µg/mL / viability at 7.5 µg/mL / viability at 15 µg/mL / IC50: Rattus norvegicus; for viability at 1.875 µg/mL / viability at 3.75 µg/mL / viability at 7.5 µg/mL / viability at 15 µg/mL / Percentage of dead cells per C6 cell line (cytotoxic effect): 48 h; for viability at 1.875 µg/mL: read-out: Cell viability (%) C6, 1.875 μg/mL (nanoparticles or free drug), 48 h; for viability at 3.75 µg/mL: read-out: Cell viability (%) C6, 3.75 μg/mL, 48 h; for viability at 7.5 µg/mL: read-out: Cell viability (%) C6, 7.5 μg/mL, 48 h; for viability at 15 µg/mL: read-out: Cell viability (%) C6, 15 μg/mL, 48 h; for IC50: C6, 48 h
Protocol: as §3, §4, §5

normal V79-4 cells = experiment: Cytotoxicity, MTT assay; settings: for Percentage of dead cells per V79-4 cell line (cytotoxic effect): 48 h; for IC50: Cricetulus griseus, V79-4, 48 h
Protocol: as §3, §4, §5

[3] = pH stability of free and encapsulated curcumin; assay type: physicochemical; design: degradation rate constant k: unit: h⁻¹; settings: dark; for half-life at 4 μg/mL: read-out: degradation half-life t1/2 (converted)
Protocol: The samples were maintained at 37 °C in the dark, in closed containers, for 8 h. […] The particles were maintained at 37 °C in an oven (AG-System, F.lli Galli G. & P., Milano, Italia) protected from light and air exposure. […] The amount of curcumin found in the samples was then determined using a Nanodrop spectrophotometer. […] The half-life (t1/2) for first-order reactions depends solely on the degradation rate constant, k, and is independent of the substance’s initial concentration. All measurements were conducted in triplicate, and the results are reported as average values ± standard deviation (STDev).

[4] = Light stability of free and encapsulated curcumin (natural light and air); assay type: physicochemical
Protocol: The analyzed HSA nanoparticles were weighed and then exposed to air and natural light for 30 days in Petri dishes. […] All determinations were performed in triplicate, and the results are presented as mean values ± standard deviation (STDev).

[5] = design: method as in PMID 32494134, PMID 35684445, PMID 25751368; settings: rapidly hydrolyzed in physiological conditions; cited from earlier work
[6] = read-out: IC50 μg/mL for TMZ/CURC on the C6 Cell Line
[7] = read-out: IC50 μg/mL for TMZ/CURC on the V79-4 Cell Line

O=C1O[C@H]([C@@H](O)CO)C(O)=C1O [Ascorbic acid, ascorbic acid]
IC50 (DPPH) [1]: 4.3 µg/mL (≈ 24.4 µM)

COc1cc(/C=C/C(=O)CC(=O)/C=C/c2ccc(O)c(OC)c2)ccc1O [Curcumin, curcumin]
Apoptotic cells (%) (C6 tumor cell line): 35.64% | Dead cells (%) (C6 tumor cell line): 14.33% | Living cells (%) (C6 tumor cell line): 37.92% | Preapoptotic cells (%) (C6 tumor cell line): 12.11% | Apoptotic cells (%) (V79-4 normal cell line): 27.09% | Dead cells (%) (V79-4 normal cell line): 17.93% | Living cells (%) (V79-4 normal cell line): 43.47% | Papp at 18 h, 500 μM ([2]; pH 7.4, Permeability rate, Pe (Curcumin), PAMPA-BBB, read at 425 nm): 0.21 ×10⁻⁶ cm/s | viability at 48 h, 1.875 μg/mL (Cytotoxicity, MTT assay): 75.8% | viability at 48 h, 3.75 μg/mL (Cytotoxicity, MTT assay): 60.9% | viability at 48 h, 7.5 μg/mL (Cytotoxicity, MTT assay): 52.7% | viability at 48 h, 15 μg/mL (Cytotoxicity, MTT assay): 41.6% | viability at 1.875 µg/mL (C6 tumor cells): 62.3% | viability at 3.75 µg/mL (C6 tumor cells): 55.8% | viability at 7.5 µg/mL (C6 tumor cells): 39.2% | viability at 15 µg/mL (C6 tumor cells): 37.4% | IC50 (C6 tumor cells; [6]): 6.31 µg/mL (≈ 17.1 µM) | IC50 (C6 tumor cells; read-out: IC50 for μg/mL for CURC on the C6 Cell Line): 6.31 µg/mL (≈ 17.1 µM) | Percentage of dead cells per C6 cell line (cytotoxic effect) (C6 tumor cells; rat, 1.875 μg/mL): 37.66% | Percentage of dead cells per C6 cell line (cytotoxic effect) (C6 tumor cells; rat, 3.75 μg/mL): 44.22% | Percentage of dead cells per C6 cell line (cytotoxic effect) (C6 tumor cells; rat, 7.5 μg/mL): 60.84% | Percentage of dead cells per C6 cell line (cytotoxic effect) (C6 tumor cells; rat, 15 μg/mL): 62.63% | Percentage of dead cells per V79-4 cell line (cytotoxic effect) (normal V79-4 cells; 1.875 μg/mL): 24.21% | Percentage of dead cells per V79-4 cell line (cytotoxic effect) (normal V79-4 cells; 3.75 μg/mL): 39.14% | Percentage of dead cells per V79-4 cell line (cytotoxic effect) (normal V79-4 cells; 7.5 μg/mL): 47.33% | Percentage of dead cells per V79-4 cell line (cytotoxic effect) (normal V79-4 cells; 15 μg/mL): 58.41% | IC50 (normal V79-4 cells; read-out: IC 50 μg/mL for CURC on the V79-4 Cell Line): 10.4 µg/mL (≈ 28.1 µM) | IC50 (normal V79-4 cells; [7]): 10.4 µg/mL (≈ 28.1 µM) | half-life at 4 μg/mL ([3]; buffer solution (pH 3), pH 3, 37 °C): 7.7 h | half-life at 4 μg/mL ([3]; buffer solution (pH 9), pH 9, 37 °C): 2.3 h | half-life at 4 μg/mL ([3]; buffer solution, pH 6.8, 37 °C): 6.5 h | half-life at 4 μg/mL ([3]; buffer solution, pH 7.4, 37 °C): 5.8 h | Undegraded Curcumin (%) 1 h ([3]; pH 3, 37 °C): 76% | Undegraded Curcumin (%) 5 h ([3]; pH 3, 37 °C): 55.7% | Undegraded Curcumin (%) 8 h ([3]; pH 3, 37 °C): 47.6% | degradation rate constant k ([3]; pH 3, 37 °C): 0.091 | Undegraded Curcumin (%) 1 h ([3]; pH 6.8, 37 °C): 76.4% | Undegraded Curcumin (%) 5 h ([3]; pH 6.8, 37 °C): 56.8% | Undegraded Curcumin (%) 8 h ([3]; pH 6.8, 37 °C): 43.7% | degradation rate constant k ([3]; pH 6.8, 37 °C): 0.107 | Undegraded Curcumin (%) 1 h ([3]; pH 7.4, 37 °C): 77% | Undegraded Curcumin (%) 5 h ([3]; pH 7.4, 37 °C): 52.7% | Undegraded Curcumin (%) 8 h ([3]; pH 7.4, 37 °C): 41.1% | degradation rate constant k ([3]; pH 7.4, 37 °C): 0.119 | Undegraded Curcumin (%) 1 h ([3]; pH 9, 37 °C): 61% | Undegraded Curcumin (%) 5 h ([3]; pH 9, 37 °C): 21% | Undegraded Curcumin (%) 8 h ([3]; pH 9, 37 °C): 8.6% | degradation rate constant k ([3]; pH 9, 37 °C): 0.301 | Percentage of Degradation of curcumin, Day 3 [4]: 6.8% | Percentage of Degradation of curcumin, Day 10 [4]: 13.5% | Percentage of Degradation of curcumin, Day 18 [4]: 16.9% | Percentage of Degradation of curcumin, Day 26 [4]: 26% | Percentage of Degradation of curcumin, Day 30 [4]: 32.3%

Cn1nnc2c(C(N)=O)ncn2c1=O [TMZ, temozolomide]
Apoptotic cells (%) (C6 tumor cell line): 33.59% | Dead cells (%) (C6 tumor cell line): 16.45% | Living cells (%) (C6 tumor cell line): 40.08% | Preapoptotic cells (%) (C6 tumor cell line): 9.88% | Apoptotic cells (%) (V79-4 normal cell line): 24.86% | Dead cells (%) (V79-4 normal cell line): 15.17% | Living cells (%) (V79-4 normal cell line): 49.36% | Preapoptotic cells (%) (V79-4 normal cell line): 10.61% | Papp at 18 h, 500 μM ([2]; pH 7.4, PAMPA-BBB, read at 327 nm, read-out: Permeability rate, Pe (TMZ)): 0.76 ×10⁻⁶ cm/s | BBB permeability category ([2]; PAMPA-BBB, in words): low permeability | viability at 48 h, 1.875 μg/mL (Cytotoxicity, MTT assay): 75.8% | viability at 48 h, 3.75 μg/mL (Cytotoxicity, MTT assay): 67% | viability at 48 h, 7.5 μg/mL (Cytotoxicity, MTT assay): 60.4% | viability at 48 h, 15 μg/mL (Cytotoxicity, MTT assay): 54.5% | Percentage of dead cells per C6 cell line (cytotoxic effect) (C6 tumor cells; 1.875 μg/mL): 37.7% and 34.88% | Percentage of dead cells per C6 cell line (cytotoxic effect) (C6 tumor cells; 3.75 μg/mL): 42.5% | Percentage of dead cells per C6 cell line (cytotoxic effect) (C6 tumor cells; 7.5 μg/mL): 47.05% | Percentage of dead cells per C6 cell line (cytotoxic effect) (C6 tumor cells; 15 μg/mL): 60.95% and 59.18% | viability at 1.875 µg/mL (C6 tumor cells): 62.3% | viability at 3.75 µg/mL (C6 tumor cells): 57.5% | viability at 7.5 µg/mL (C6 tumor cells): 53% | viability at 15 µg/mL (C6 tumor cells): 39% | IC50 (C6 tumor cells; read-out: IC50 μg/mL for TMZ on the C6 Cell Line): 8.75 µg/mL (≈ 45.1 µM) | IC50 (C6 tumor cells; [6]): 8.75 µg/mL (≈ 45.1 µM) | Percentage of dead cells per V79-4 cell line (cytotoxic effect) (normal V79-4 cells; 1.875 μg/mL): 24.16% | Percentage of dead cells per V79-4 cell line (cytotoxic effect) (normal V79-4 cells; 3.75 μg/mL): 33.05% | Percentage of dead cells per V79-4 cell line (cytotoxic effect) (normal V79-4 cells; 7.5 μg/mL): 39.64% | Percentage of dead cells per V79-4 cell line (cytotoxic effect) (normal V79-4 cells; 15 μg/mL): 45.53% | IC50 (normal V79-4 cells; read-out: IC50 μg/mL for TMZ on the V79-4 Cell Line): 16.8 µg/mL (≈ 86.7 µM) | IC50 (normal V79-4 cells; [7]): 16.8 µg/mL (≈ 86.7 µM) | half-life [5]: 1.8 h
